Consider 24 compounds from patent US20240246945A1, “NOVEL COMPOUND FOR CROP PROTECTANT” (LG CHEM, LTD., priority 2010, published 2024).

Each structure is given as a SMILES string.

One experiment concerns Myzus persicae (Sulzer). Briefly: Insecticidal Activity Test 2 against Myzus persicae (Sulzer), foliar spray on potted peppers, approximately 25 ppm. Type of experiment: in vivo. The following applies: in Capsicum, 120 h, approximately 25 ppm drug solution in water, counted on day 5 after spraying, read-out: mortality rate rating. An excerpt:
Insecticidal Activity Test 2 Against Myzus persicae (Sulzer)
Peppers were planted in plastic pots with a diameter of 8 cm and a height of 8 cm, Myzus persicae (Sulzer) was reproduced therein, and then the number of Myzus persicae (Sulzer) in each pot was investigated. Some of the compounds prepared in the examples were selected, the compound was dispersed in water to be diluted to approximately 25 ppm, thereby preparing a drug solution.
The drug solution was sprayed onto the foliage of the peppers planted in the pots and air-dried, and the pots were stored in a green house.
(§1) On day 5 after the drug spraying, the number of Myzus persicae (Sulzer) parasitic on each pepper was counted, a mortality rate was calculated from the following formula, and the rating of each compound was investigated.
(§2) [formula] • A rating: 90% to 100% mortality • B rating: 80% or more and less than 90% mortality • C rating: less than 80% mortality
With `CCN(C(=O)c1cnc(-c2noc(N(C(C)=O)C(C)C)n2)n1C)c1cccnc1` [Ia-1-1-38, N-ethyl-2-(5-(N-isopropylacetamido)-1,2,4-oxadiazol-3-yl)-1-methyl-N-(pyridin-3-yl)-1H-imidazole-5-carboxamide], the mortality (commonly the percentage killed) at 25 µg/mL fell in the range of 90 to 100%.

Take `CCN(C(=O)c1cnc(C2=NOC(C)(C)N2C(=O)C2CC2)n1C)c1cccnc1` [Ia-1-4-3, 2-(4-(cyclopropanecarbonyl)-5,5-dimethyl-4,5-dihydro-1,2,4-oxadiazol-3-yl)-N-ethyl-1-methyl-N-(pyridin-3-yl)-1H-imidazole-5-carboxamide]: the mortality at 25 µg/mL was in the range of 90 to 100%. Regarding `CCN(C(=O)c1cnc(C2=NOC(CC)(CC)N2)n1C)c1cccnc1` [Ia-1-4-4, 2-(5,5-diethyl-4,5-dihydro-1,2,4-oxadiazol-3-yl)-N-ethyl-1-methyl-N-(pyridin-3-yl)-1H-imidazole-5-carboxamide], the mortality at 25 µg/mL lay in the range of 90 to 100%. On to `CCN(C(=O)c1cnc(C2=NOC3(CCOCC3)N2)n1C)c1cccnc1` [Ia-1-4-10, N-ethyl-1-methyl-N-(pyridin-3-yl)-2-(1,8-dioxa-2,4-diazaspiro[4.5]dec-2-en-3-yl)-1H-imidazole-5-carboxamide], for which the mortality at 25 µg/mL lay within 90 to 100%. For `CCN(C(=O)c1cnc(C2=NOC3(CCOCC3)N2C(=O)C2CC2)n1C)c1cccnc1` [Ia-1-4-12, 2-(4-(cyclopropanecarbonyl)-1,8-dioxa-2,4-diazaspiro[4.5]dec-2-en-3-yl)-N-ethyl-1-methyl-N-(pyridin-3-yl)-1H-imidazole-5-carboxamide], the mortality at 25 µg/mL was 90 to 100%. The same measure, in the same setting: next, `CCN(C(=O)c1cnc(C2=NOC3(CCC(C(F)(F)F)CC3)N2C)n1C)c1cccnc1` (stereo not drawn) [Ia-1-4-25, N-ethyl-1-methyl-2-(4-methyl-8-(trifluoromethyl)-1-oxa-2,4-diazaspiro[4.5]dec-2-en-3-yl)-N-(pyridin-3-yl)-1H-imidazole-5-carboxamide]: 90 to 100%; `CCN(C(=O)c1cnc(C2=NOC(c3ccccc3F)N2)n1C)c1cccnc1` (stereo not drawn) [Ia-1-4-33, N-ethyl-2-(5-(2-fluorophenyl)-4,5-dihydro-1,2,4-oxadiazol-3-yl)-1-methyl-N-(pyridin-3-yl)-1H-imidazole-5-carboxamide]: 90 to 100%; `CCN(C(=O)c1cnc(C2=NOC(c3cccnc3F)N2)n1C)c1cccnc1` (stereo not drawn) [Ia-1-4-34, N-ethyl-2-(5-(2-fluoropyridin-3-yl)-4,5-dihydro-1,2,4-oxadiazol-3-yl)-1-methyl-N-(pyridin-3-yl)-1H-imidazole-5-carboxamide]: 90 to 100%. Turning to `CCN(C(=O)c1cnc(C2=NC(C)(C)ON2C)n1C)c1cccnc1` [Ia-1-5-1, N-ethyl-1-methyl-N-(pyridin-3-yl)-2-(2,5,5-trimethyl-2,5-dihydro-1,2,4-oxadiazol-3-yl)-1H-imidazole-5-carboxamide], the mortality at 25 µg/mL was 90 to 100%. The same measure, in the same setting: under `CCN(C(=O)c1cnc(C2=NC3(CCN(C(=O)OC(C)(C)C)CC3)ON2C)n1C)c1cccnc1` [Ia-1-5-3, tert-butyl 3-(5-(ethyl(pyridin-3-yl)carbamoyl)-1-methyl-1H-imidazole-2-yl)-2-methyl-1-oxa-2,4,8-triazaspiro[4.5]dec-3-en-8-carboxylate] stands 90 to 100%; under `CCN(C(=O)c1cnc(C2=NC(c3cccnc3F)ON2C)n1C)c1cccnc1` (stereo not drawn) [Ia-1-5-9, N-ethyl-2-(5-(2-fluoropyridin-3-yl)-2-methyl-2,5-dihydro-1,2,4-oxadiazol-3-yl)-1-methyl-N-(pyridin-3-yl)-1H-imidazole-5-carboxamide], 90 to 100%.

Another experiment concerns Myzus persicae (Sulzer). Briefly: Insecticidal Activity Test 1 against Myzus persicae (Sulzer), foliar spray on potted peppers, approximately 5 ppm. Type of experiment: in vivo. Particulars: in Capsicum, 120 h, approximately 5 ppm drug solution in water, counted on day 5 after spraying, read-out: mortality rate rating.
Description: Insecticidal Activity Test 1 Against Myzus persicae (Sulzer)
Peppers were planted in plastic pots with a diameter of 8 cm and a height of 8 cm, Myzus persicae (Sulzer) was reproduced therein, and then the number of Myzus persicae (Sulzer) in each pot was investigated. Some of the compounds prepared in the examples were selected, the compound was dispersed in water to be diluted to approximately 5 ppm, thereby preparing a drug solution.
The drug solution was sprayed onto the foliage of the peppers planted in the pots using a hand sprayer and air-dried, and the pots were stored in a green house.
as §1, §2
For `CCN(C(=O)c1cnc(-c2noc(C)n2)n1C)c1cccnc1` [Ia-1-1-1, N-ethyl-1-methyl-2-(5-methyl-1,2,4-oxadiazol-3-yl)-N-(pyridin-3-yl)-1H-imidazole-5-carboxamide], the mortality at 5 µg/mL fell in the range of 90 to 100%. On the same count and under the same terms, under `CCc1nc(-c2ncc(C(=O)N(CC)c3cccnc3)n2C)no1` [Ia-1-1-8, N-ethyl-2-(5-ethyl-1,2,4-oxadiazol-3-yl)-1-methyl-N-(pyridin-3-yl)-1H-imidazole-5-carboxamide] stands 90 to 100%. On the same count and under the same terms, next, `CCN(C(=O)c1cnc(-c2noc(C3CC3)n2)n1C)c1cccnc1` [Ia-1-1-12, 2-(5-cyclopropyl-1,2,4-oxadiazol-3-yl)-N-ethyl-1-methyl-N-(pyridin-3-yl)-1H-imidazole-5-carboxamide]: 90 to 100%; `CCN(C(=O)c1cnc(-c2noc(C3CCOCC3)n2)n1C)c1cccnc1` [Ia-1-1-25, N-ethyl-1-methyl-N-(pyridin-3-yl)-2-(5-(tetrahydro-2H-pyran-4-yl)-1,2,4-oxadiazol-3-yl)-1H-imidazole-5-carboxamide]: 90 to 100%. `CCN(C(=O)c1cnc(-c2noc(N3CCCCC3)n2)n1C)c1cccnc1` [Ia-1-1-26, N-ethyl-1-methyl-2-(5-(piperidin-1-yl)-1,2,4-oxadiazol-3-yl)-N-(pyridin-3-yl)-1H-imidazole-5-carboxamide]: the mortality at 5 µg/mL lay in the range of 90 to 100%. Same read-out and setting: under `CCN(C(=O)c1cnc(-c2noc(N3CCCC3)n2)n1C)c1cccnc1` [Ia-1-1-27, N-ethyl-1-methyl-N-(pyridin-3-yl)-2-(5-(pyrrolidin-1-yl)-1,2,4-oxadiazol-3-yl)-1H-imidazole-5-carboxamide] stands 90 to 100%; under `CCN(C(=O)c1cnc(-c2noc(N(C)C)n2)n1C)c1cccnc1` [Ia-1-1-36, 2-(5-(dimethylamino)-1,2,4-oxadiazol-3-yl)-N-ethyl-1-methyl-N-(pyridin-3-yl)-1H-imidazole-5-carboxamide], 90 to 100%; under `CCSc1ccccc1-c1nc(-c2ncc(C(=O)N(CC)c3cccnc3)n2C)no1` [Ia-1-1-43, N-ethyl-2-(5-(2-(ethylthio)phenyl)-1,2,4-oxadiazol-3-yl)-1-methyl-N-(pyridin-3-yl)-1H-imidazole-5-carboxamide], 90 to 100%. `CCN(C(=O)c1cnc(-c2nnc(C3CC3)o2)n1C)c1cccnc1` [Ia-1-3-2, 2-(5-cyclopropyl-1,3,4-oxadiazol-2-yl)-N-ethyl-1-methyl-N-(pyridin-3-yl)-1H-imidazole-5-carboxamide]: the mortality at 5 µg/mL is 90 to 100%.

In the case of `CCN(C(=O)c1cnc(-c2nnc(C)o2)n1C)c1cccnc1` [Ia-1-3-3, N-ethyl-1-methyl-2-(5-methyl-1,3,4-oxadiazol-2-yl)-N-(pyridin-3-yl)-1H-imidazole-5-carboxamide], the mortality at 5 µg/mL lay in the range of 90 to 100%. Still for that read-out and setting: next, `CCN(C(=O)c1cnc(C2=NOC(C)(C)N2C)n1C)c1cccnc1` [Ia-1-4-2, N-ethyl-1-methyl-N-(pyridin-3-yl)-2-(4,5,5-trimethyl-4,5-dihydro-1,2,4-oxadiazol-3-yl)-1H-imidazole-5-carboxamide]: 90 to 100%; `CCN(C(=O)c1cnc(C2=NOC3(CCSCC3)N2C)n1C)c1cccnc1` [Ia-1-4-22, N-ethyl-1-methyl-2-(4-methyl-1-oxa-8-thia-2,4-diazaspiro[4.5]dec-2-en-3-yl)-N-(pyridin-3-yl)-1H-imidazole-5-carboxamide]: 90 to 100%; `CCN(C(=O)c1cnc(C2=NOC(C3CC3)N2)n1C)c1cccnc1` (stereo not drawn) [Ia-1-4-41, 2-(5-cyclopropyl-4,5-dihydro-1,2,4-oxadiazol-3-yl)-N-ethyl-1-methyl-N-(pyridin-3-yl)-1H-imidazole-5-carboxamide]: 90 to 100%.
